Consider 36 compounds from patent US10266526B2, “Substituted 1,2,3-triazoles as SMYD inhibitors for treating cancer” (EPIZYME, INC., priority 2014, dated 2019).

Some results are limits rather than exact numbers.

For orientation: IC50 means the concentration needed to halve the response being measured.

The experiment concerns the target SMYD2 (Homo sapiens (Human), UniProt Q9NRG4). Kind of experiment: SMYD2 biochemical assay (SMYD2 enzyme assay on peptide substrate, 3H-SAM Flashplate). The note with it: read-out: SMYD2 Biochem IC50; IC50 values are an average of n = 1 to n = 50.

SMYD2, sequence (Q9NRG4 whole entry): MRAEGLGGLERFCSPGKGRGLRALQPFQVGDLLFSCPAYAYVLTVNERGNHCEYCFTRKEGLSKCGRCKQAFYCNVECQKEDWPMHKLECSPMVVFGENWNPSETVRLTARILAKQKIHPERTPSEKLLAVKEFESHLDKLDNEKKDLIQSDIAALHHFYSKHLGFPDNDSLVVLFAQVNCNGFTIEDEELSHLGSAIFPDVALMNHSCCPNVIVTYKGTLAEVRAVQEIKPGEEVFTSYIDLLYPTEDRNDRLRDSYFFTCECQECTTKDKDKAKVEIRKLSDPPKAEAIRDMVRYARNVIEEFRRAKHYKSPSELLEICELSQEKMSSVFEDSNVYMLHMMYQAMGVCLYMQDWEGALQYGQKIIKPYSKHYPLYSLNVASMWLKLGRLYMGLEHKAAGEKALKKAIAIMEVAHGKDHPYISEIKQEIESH

For `CNC1CCOC(CN2CC(NC(=O)c3cn(C4CC4)nn3)C2)C1` (stereo not drawn) [compound 758, 1-cyclopropyl-N-(1-{[4-(methylamino)oxan-2-yl]methyl}azetidin-3-yl)-1H-1,2,3-triazole-4-carboxamide], the IC50 is more than 50000 nM.
Consider `CC(c1n[nH]c2ccccc12)N1CC(NC(=O)c2cn(C3CC3)nn2)C1` (stereo not drawn) [compound 761, 1-cyclopropyl-N-{1-[1-(1H-indazol-3-yl)ethyl]azetidin-3-yl}-1H-1,2,3-triazole-4-carboxamide], for which the IC50 amounted to 3210 nM.
With `COc1cccc2c1C(N1CC(NC(=O)c3cn(C4CC4)nn3)C1)CC2` (stereo not drawn) [compound 762, 1-cyclopropyl-N-[1-(7-methoxy-2,3-dihydro-1H-inden-1-yl)azetidin-3-yl]-1H-1,2,3-triazole-4-carboxamide] the figure was 7970 nM; with `O=C(NC1CN(Cc2ccc3c(c2)C(=O)NC3)C1)c1cn(C2CC2)nn1` [compound 765, 1-cyclopropyl-N-{1-[(3-oxo-2,3-dihydro-1H-isoindol-5-yl)methyl]azetidin-3-yl}-1H-1,2,3-triazole-4-carboxamide], 10200 nM.
As for `O=C(NC1CN(C(c2ccccc2)C(F)(F)F)C1)c1cn(C2CC2)nn1` (stereo not drawn) [compound 766, 1-cyclopropyl-N-[1-(2,2,2-trifluoro-1-phenylethyl)azetidin-3-yl]-1H-1,2,3-triazole-4-carboxamide], the half-maximal inhibitory concentration (IC50) was more than 50000 nM.
Next, `CC(c1ccc2c(c1)OCCO2)N1CC(NC(=O)c2cn(C3CC3)nn2)C1` (stereo not drawn) [compound 767, 1-cyclopropyl-N-{1-[1-(2,3-dihydro-1,4-benzodioxin-6-yl)ethyl]azetidin-3-yl}-1H-1,2,3-triazole-4-carboxamide]: 576 nM; `COc1cccc(OC)c1C(C)N1CC(NC(=O)c2cn(C3CC3)nn2)C1` (stereo not drawn) [compound 768, 1-cyclopropyl-N-{1-[1-(2,6-dimethoxyphenyl)ethyl]azetidin-3-yl}-1H-1,2,3-triazole-4-carboxamide]: 1680 nM.
Regarding `CC(c1c(Cl)cccc1Cl)N1CC(NC(=O)c2cn(C3CC3)nn2)C1` (stereo not drawn) [compound 769, 1-cyclopropyl-N-{1-[1-(2,6-dichlorophenyl)ethyl]azetidin-3-yl}-1H-1,2,3-triazole-4-carboxamide], the IC50 was found to be 1200 nM.
Consider `CC(C)N1CC(NC(=O)c2cn(C3CC3(F)F)nn2)C1` (stereo not drawn) [compound 770, 1-(2,2-difluorocyclopropyl)-N-[1-(propan-2-yl)azetidin-3-yl]-1H-1,2,3-triazole-4-carboxamide], for which the IC50 worked out at 4190 nM.
For the compound `COc1c(CO)cccc1CN1CC(NC(=O)c2cn(C3CC3)nn2)C1` [compound 772, 1-cyclopropyl-N-(1-{[3-(hydroxymethyl)-2-methoxyphenyl]methyl}azetidin-3-yl)-1H-1,2,3-triazole-4-carboxamide], the IC50 stood at 10800 nM.
Regarding `CS(=O)(=O)CC(c1ccccc1)N1CC(NC(=O)c2cn(C3CC3)nn2)C1` (stereo not drawn) [compound 773, 1-cyclopropyl-N-[1-(2-methanesulfonyl-1-phenylethyl)azetidin-3-yl]-1H-1,2,3-triazole-4-carboxamide], the IC50 is more than 50000 nM.
As for `CC(c1ccc2c(c1)NC(=O)CO2)N1CC(NC(=O)c2cn(C3CC3)nn2)C1` (stereo not drawn) [compound 774, 1-cyclopropyl-N-{1-[1-(3-oxo-3,4-dihydro-2H-1,4-benzoxazin-6-yl)ethyl]azetidin-3-yl}-1H-1,2,3-triazole-4-carboxamide], the IC50 stood at 1620 nM.
As for `CC(c1cccc(OCCO)c1Cl)N1CC(NC(=O)c2cn(C3CC3)nn2)C1` (stereo not drawn) [compound 775, N-(1-{1-[2-chloro-3-(2-hydroxyethoxy)phenyl]ethyl}azetidin-3-yl)-1-cyclopropyl-1H-1,2,3-triazole-4-carboxamide], the IC50 amounted to 49.4 nM.
As to `COc1c(OCCO)cccc1C(C)N1CC(NC(=O)c2cn(C3CC3)nn2)C1` (stereo not drawn) [compound 776, 1-cyclopropyl-N-(1-{1-[3-(2-hydroxyethoxy)-2-methoxyphenyl]ethyl}azetidin-3-yl)-1H-1,2,3-triazole-4-carboxamide], the IC50 was determined as 345 nM.
On to `COc1nn(C)cc1CN1CC(NC(=O)c2cn(C3CC3)nn2)C1` [compound 777, 1-cyclopropyl-N-{1-[(3-methoxy-1-methyl-1H-pyrazol-4-yl)methyl]azetidin-3-yl}-1H-1,2,3-triazole-4-carboxamide], for which the concentration for half-maximal inhibition (IC50) is 5620 nM.
Next, `O=C(NC1CN(C2(c3ccccc3)COC2)C1)c1cn(C2CC2)nn1` [compound 781, 1-cyclopropyl-N-[1-(3-phenyloxetan-3-yl)azetidin-3-yl]-1H-1,2,3-triazole-4-carboxamide]: more than 50000 nM; `O=C(NC1CN(Cc2cn(CCc3ccccc3)cn2)C1)c1cn(C2CC2)nn1` [compound 782, 1-cyclopropyl-N-(1-{[1-(2-phenylethyl)-1H-imidazol-4-yl]methyl}azetidin-3-yl)-1H-1,2,3-triazole-4-carboxamide]: 2620 nM; `CC(=O)Nc1cccc(C(C)N2CC(NC(=O)c3cn(C4CC4)nn3)C2)c1` (stereo not drawn) [compound 783, 1-cyclopropyl-N-{1-[1-(3-acetamidophenyl)ethyl]azetidin-3-yl}-1H-1,2,3-triazole-4-carboxamide]: 3140 nM.
As for `Cn1cnc(CN2CC(NC(=O)c3cn(C4CC4)nn3)C2)c1Cl` [compound 784, N-{1-[(5-chloro-1-methyl-1H-imidazol-4-yl)methyl]azetidin-3-yl}-1-cyclopropyl-1H-1,2,3-triazole-4-carboxamide], the IC50 stood at 21000 nM.
Regarding `CC(c1c[nH]cn1)N1CC(NC(=O)c2cn(C3CC3)nn2)C1` (stereo not drawn) [compound 785, 1-cyclopropyl-N-{1-[1-(1H-imidazol-4-yl)ethyl]azetidin-3-yl}-1H-1,2,3-triazole-4-carboxamide], the IC50 is 2590 nM.
As to `O=C(NC1CN(C(c2ccc(F)cc2)C2CC2)C1)c1cn(C2CC2)nn1` (stereo not drawn) [compound 786, 1-cyclopropyl-N-{1-[cyclopropyl(4-fluorophenyl)methyl]azetidin-3-yl}-1H-1,2,3-triazole-4-carboxamide], the IC50 came to 1700 nM.
Next, `CC(C)C(c1ccccc1)N1CC(NC(=O)c2cn(C3CC3)nn2)C1` (stereo not drawn) [compound 787, 1-cyclopropyl-N-[1-(2-methyl-1-phenylpropyl)azetidin-3-yl]-1H-1,2,3-triazole-4-carboxamide]: 1430 nM; `CCC(c1ccccn1)N1CC(NC(=O)c2cn(C3CC3)nn2)C1` (stereo not drawn) [compound 791, 1-cyclopropyl-N-{1-[1-(pyridin-2-yl)propyl]azetidin-3-yl}-1H-1,2,3-triazole-4-carboxamide]: 2470 nM.
With `O=C(NC1CN(Cc2cnn(Cc3ccccc3)c2)C1)c1cn(C2CC2)nn1` [compound 792, N-{1-[(1-benzyl-1H-pyrazol-4-yl)methyl]azetidin-3-yl}-1-cyclopropyl-1H-1,2,3-triazole-4-carboxamide], the IC50 was determined as 16.4 nM.
Regarding `COc1ccc2c(c1)CCCC2N1CC(NC(=O)c2cn(C3CC3)nn2)C1` (stereo not drawn) [compound 793, 1-cyclopropyl-N-[1-(6-methoxy-1,2,3,4-tetrahydronaphthalen-1-yl)azetidin-3-yl]-1H-1,2,3-triazole-4-carboxamide], the IC50 is 9920 nM.
Consider `COc1c(CN)cccc1CN1CC(NC(=O)c2cn(C3CC3)nn2)C1` [compound 794, N-(1-{[3-(aminomethyl)-2-methoxyphenyl]methyl}azetidin-3-yl)-1-cyclopropyl-1H-1,2,3-triazole-4-carboxamide], for which the IC50 was 32300 nM.
With `O=C(NC1CN(Cc2cn(Cc3ccccc3)cn2)C1)c1cn(C2CC2)nn1` [compound 795, N-{1-[(1-benzyl-1H-imidazol-4-yl)methyl]azetidin-3-yl}-1-cyclopropyl-1H-1,2,3-triazole-4-carboxamide] the figure was 7150 nM; with `CC(c1ccccc1OCc1ccccc1)N1CC(NC(=O)c2cn(C3CC3)nn2)C1` (stereo not drawn) [compound 796, N-(1-{1-[2-(benzyloxy)phenyl]ethyl}azetidin-3-yl)-1-cyclopropyl-1H-1,2,3-triazole-4-carboxamide], 422 nM; with `CC(c1ccc(-n2ccnc2)cc1)N1CC(NC(=O)c2cn(C3CC3)nn2)C1` (stereo not drawn) [compound 797, 1-cyclopropyl-N-(1-{1-[4-(1H-imidazol-1-yl)phenyl]ethyl}azetidin-3-yl)-1H-1,2,3-triazole-4-carboxamide], 1570 nM.
With `CCC(c1ccccc1F)N1CC(NC(=O)c2cn(C3CC3)nn2)C1` (stereo not drawn) [compound 798, 1-cyclopropyl-N-{1-[1-(2-fluorophenyl)propyl]azetidin-3-yl}-1H-1,2,3-triazole-4-carboxamide], the IC50 was found to be 425 nM.
In the case of `CC(C)N1CC(NC(=O)c2cn(C3CC3)nn2)C1(C)C` (stereo not drawn) [compound 799, 1-cyclopropyl-N-[2,2-dimethyl-1-(propan-2-yl)azetidin-3-yl]-1H-1,2,3-triazole-4-carboxamide], the IC50 came to 9600 nM.
For the compound `COc1cc(OCc2ccccc2)ccc1C(C)N1CC(NC(=O)c2cn(C3CC3)nn2)C1` (stereo not drawn) [compound 800, N-(1-{1-[4-(benzyloxy)-2-methoxyphenyl]ethyl}azetidin-3-yl)-1-cyclopropyl-1H-1,2,3-triazole-4-carboxamide], the IC50 was found to be 965 nM.
Next, `COc1ccc(C(C)N2CC(NC(=O)c3cn(C4CC4)nn3)C2)c(OC)c1` (stereo not drawn) [compound 801, 1-cyclopropyl-N-{1-[1-(2,4-dimethoxyphenyl)ethyl]azetidin-3-yl}-1H-1,2,3-triazole-4-carboxamide]: 1060 nM; `O=C(NC1CN(Cc2ccc(OCc3ccccc3)cc2)C1)c1cn(C2CC2)nn1` [compound 802, N-(1-{[4-(benzyloxy)phenyl]methyl}azetidin-3-yl)-1-cyclopropyl-1H-1,2,3-triazole-4-carboxamide]: 83.4 nM; `COc1cccc(C(C)N2CC(NC(=O)c3cn(C4CC4)nn3)C2)c1Cl` (stereo not drawn) [compound 803, N-{1-[1-(2-chloro-3-methoxyphenyl)ethyl]azetidin-3-yl}-1-cyclopropyl-1H-1,2,3-triazole-4-carboxamide]: 69.5 nM.
As to `O=C(NC1CN(Cc2cnn(CCc3ccccc3)c2)C1)c1cn(C2CC2)nn1` [compound 806, 1-cyclopropyl-N-(1-{[1-(2-phenylethyl)-1H-pyrazol-4-yl]methyl}azetidin-3-yl)-1H-1,2,3-triazole-4-carboxamide], the IC50 is 970 nM.
